Laboratory results taken from patent US5707821A, “Identification of phospholipase A2 inhibitors in Aβ peptide-mediated neurodegenerative disease” (priority 1995, dated 1998).

Legend:
[1] = system: AD patients; settings: selected group of five AD patients; cited from earlier work
[2] = Compound toxicity to human cortical neurons in absence of Aβ1-40, added as in pretreatment protocol; format: cell-based; settings: human, cortical neurons, no Aβ1-40, 3 days, n=3, ND = not detected at the concentration range used, read-out: TD50 (concentration giving 50% loss of neuronal survival)
Protocol: (§1) Cultures of human cortical or hippocampal neurons were prepared using a modification of the procedure described in P. Seubert et al. (1992), Nature 359:325-327. Cortical or hippocampal tissue was dissociated by incubation in a trypsin/EDTA solution (0.05% trypsin +0.53 mM EDTA in HBSS; Gibco) for 20 minutes at 37° C. The trypsin was then inactivated by resuspending the cells in serum-containing medium (MEM/FBS): Modified Eagle's Medium (MEM) containing 1% glucose, 1 mM sodium pyruvate, 1 mM glutamine, and supplemented with 10% fetal bovine serum (Gibco). Cells were then pelleted by centrifugation and resuspended in a chemically-defined medium (MEM/B27): MEM containing B27 supplement (Gibco) in place of FBS. Polyethyleneimine (PEI)-coated 6.4-mm (96-well) dishes were rinsed once with MEM/FBS, and then seeded at 0.75-1.25×10^5 cells per well in 0.1 ml MEM/B27. Cultures were maintained in a H2 O-saturated incubator with an atmosphere of 95% air/5% CO2 at 37° C. The culture medium was exchanged twice weekly.
(§2) The alamarBlue™ assay incorporated a proprietary fluorometric/colorimetric metabolic indicator (Alamar Biosciences, Inc.). Viable cells convert alamarBlue™ from an oxidized (non-fluorescent, blue) form to a reduced (fluorescent, red) form. Assays were performed by replacing the culture media with a 10% alamarBlue™ solution in DMEM (rat cortical cultures) or MEM (human cortical cultures). Reduction of alamarBlue™ was determined spectrofluorometrically using a Millipore Cytofluor 2350 Scanner (excitation, […]; emission, 590 nm) and CytoCalc™ software (Millipore Corporation).
(§3) Human cortical neurons were treated with 50 μM Aβ1-40 and various inhibitors of PLA2. Compounds were added 2 hours prior to Aβ1-40 treatment at concentrations of 390 nM to 100 μM, and were then re-added at the time of Aβ1-40 treatment. Compounds were also added in an identical manner to neuronal cultures in the absence of Aβ1-40. Neuronal survival was determined after 3 days of treatment by alamarBlue®. IC50 is the dose of compound that inhibited Aβ-mediated neurotoxicity by 50%. […] Data represents the mean ± SD (n=3). ND, not detected at the concentration range used.

[3] = system: human cortical neurons; test: as above; format: cell-based; settings: no Aβ1-40, 3 days, n=3
Protocol: as §1, §2, §3

[4] = system: human cortical neurons; test: Aβ neurotoxicity in human cortical neurons (alamarBlue), 2 h pretreatment with inhibitor; format: cell-based; settings: Homo sapiens, Cortical neurone, 72 h, read-out: Max Inh
Protocol: as §1
(§4) Amyloid-β (Aβ) stock solutions were prepared as 1 mM stocks in sterile ddH2 O immediately prior to addition to cultures. Rat cortical neurons were exposed to Aβ by removing the culture medium and replacing it with DMEM/N2 or DMEM/B27 containing Aβ1-40. Human cortical neurons were exposed to Aβ by removing the culture medium and replacing it with MEM, MEM/N2, or MEM/B27 containing Aβ1-40. Cultures were maintained for 2-4 days before neuronal survival was quantified using alamarBlue™.
as §2
The effect of pretreating human cortical neuron cultures with the benzenesulfonamide PLA2 inhibitors and arachidonyl trifluoromethyl ketone prior to exposure to a neurotoxic concentration of Aβ1-40 was determined.
as §3

[5] = system: PLC (phosphatidyl choline-phospholipase C); settings: literature; cited from earlier work
[6] = Compound toxicity to human cortical neurons in absence of Aβ1-40 (alamarBlue, 3 days); format: cell-based; settings: human, cortical neurons
Protocol: as §1, §2
as §3, with “PLA2 or PLC.” for “PLA2.”, “added” for “added 2 hours prior to Aβ1-40 treatment at concentrations of 390 nM to 100 μM, and were then re-added”, “treatment at concentrations 390 nM to 100 μM.” for “treatment.”, “added” for “added in an identical manner”

[7] = system: human cortical neurons; test: as above; format: cell-based
Protocol: as §1, §2
as §3, with “PLA2 or PLC.” for “PLA2.”, “added” for “added 2 hours prior to Aβ1-40 treatment at concentrations of 390 nM to 100 μM, and were then re-added”, “treatment at concentrations 390 nM to 100 μM.” for “treatment.”, “added” for “added in an identical manner”

[8] = system: human cortical neurons; test: Aβ neurotoxicity / survival of human cortical neurons (alamarBlue), compound added at time of Aβ1-40; format: cell-based; settings: for Max Inh: 50 μM Aβ1-40, compound 390 nM to 100 μM added at time of Aβ, 3 days, n=3
Protocol: as §1, §4, §2
The effect of the two benzenesulfonamide inhibitors of PLA2 in Example 2 were examined to determine the dose-dependence of their effect on neuronal survival in human cortical neuron cultures exposed to 0 μM, 25μM, or 50 μM of Aβ1-40 and varying doses of the benzenesulfonamide.
as §3, with “PLA2 or PLC.” for “PLA2.”, “added” for “added 2 hours prior to Aβ1-40 treatment at concentrations of 390 nM to 100 μM, and were then re-added”, “treatment at concentrations 390 nM to 100 μM.” for “treatment.”, “added” for “added in an identical manner”

[9] = system: PLA2; settings: literature; cited from earlier work

## COc1ccc2c(c1)c(CC(=O)O)c(C)n2C(=O)c1ccc(Cl)cc1 [indomethacin]
[1]
  effects on neuropathological progression: no effects on neuropathological progression were noted
  reducing symptomatic progression in AD patients: allegedly useful in reducing symptomatic progression

## O=C(CBr)c1ccc(Br)cc1 [p-Bromophenacyl Bromide]
[2]
  CC50 at 72 h: 10 µM
[3]
  TD10 (concentration giving 10% loss of neuronal survival): 8 µM
[4]
  Emax: 39%

## S=C(S)OC1CC2CC1C1CCCC21 (stereo not shown) [AN20602, potassium 8(9)-tricyclo[5.2.1.0^2,6]decyl xanthate]
[5]
  inhibition of PLC: PLC inhibitor
[6]
  CC50 at 72 h: 35 µM
[7]; human, 4320 min
  TD10 (concentration giving 10% loss of neuronal survival): 13 µM
[8]
  Max Inh: 25%
[8]; Example 5, FIG. 5, three days
  enhancing neuronal survival after exposure to Aβ (in words): relatively ineffective in enhancing neuronal survival

## COc1ccc2c(c1)CC[C@@H]1[C@@H]2CC[C@]2(C)[C@@H](NCCCCCCN3C(=O)C=CC3=O)CC[C@@H]12 [U73122, 1-[6-[[(17β)-3-methoxyestra-1,3,5(10)-trien-17-yl]amino]hexyl]-1H-pyrrole-2,5-dione]
[9]
  inhibition of PLA2: inhibits both PLA2 and PLC
[5]
  inhibition of PLC: inhibits both PLA2 and PLC
[6]; no Aβ1-40, 3 days, 390 nM to 100 μM, n=3, ND = not detected at the concentration range used, read-out: TD50 (concentration giving 50% loss of neuronal survival)
  CC50 at 72 h: 16 µM
[7]; no Aβ1-40, 3 days, 390 nM to 100 μM, n=3
  TD10 (concentration giving 10% loss of neuronal survival): 11 µM
[8]
  Max Inh: 66%
[8]; Homo sapiens, Cortical neurone, 72 h, read-out: IC50 (dose that inhibited Aβ-mediated neurotoxicity by 50%)
  IC50: 9 µM

## CC1=C(CC/C(C)=C/CCC2=CC[C@H](C3=CC(=O)O[C@H]3O)O[C@H]2O)C(C)(C)CCC1 [Manoalide]
[2]
  CC50 at 72 h: 10 µM
[3]
  TD10 (concentration giving 10% loss of neuronal survival): 8 µM
[4]
  Emax: 49%
